For 35 molecules, EC50, IC50 and AC50 results are on record in ChEMBL document CHEMBL1201862, “PubChem BioAssay data set” (2004).

Test [1] is described as follows: Luminescence Cell-Based Dose Response HTS to Identify Inhibitors of 5'UTR Stem-Loop Driven Prion Protein mRNA Translation in H4 Neuroglioblastoma Cells. [Related pubchem assays: 1827 (Project Summary), 1813 (Primary HTS)]. The class given is functional.
A short description of test [2]: inhibitors of SNCA 5'UTR-driven reporter translation, confirmation, H4 neuroglioma cells, luminescence (AID 1988). The class given is functional, cell-based.
Test [3] can be described thus: inhibitors of firefly luciferase expression or activity, dose response, H4 neuroglioma cells, luminescence (AID 1990). The class given is functional, cell-based.
Test [4] concerns the target T1, Polyadenylate-binding protein 1 (Homo sapiens, UniProt P11940). Briefly: PABP1 MLLE–PAM2 interaction inhibitors, dose response, miRNA deadenylation inhibitor project, biochemical, fluorescence polarization, Cy5-PAM2 peptide, secondary (AID 602260). The class given is functional. The settings on record: read-out: IC50_Mean.
In test [5] the target is T1, Polyadenylate-binding protein 1. Briefly: PABP1 MLLE–PAM2 binding inhibitor potency, dose response, biochemical, fluorescence polarization, FITC-PAM2 peptide (AID 602259). The class given is functional. The settings on record: read-out: IC50_Mean. In general terms: In fluorescence polarisation assays a small probe gives low polarisation when free and higher when bound to something large.

Test [6] in a line: Luminescence Cell-Based Dose Confirmation HTS to Identify Activators of 5'UTR Stem-Loop Driven Alpha-Synuclein mRNA Translation in H4 Neuroglioblastoma Cells. [Related pubchem assays: 1829 (Project Summary), 1814 (Primary HTS)]. The class given is functional.
Test [7] can be described thus: Luminescence Cell-Based Dose Response HTS to Identify Activators of Luciferase Translation or Activity in H4 […] Cells. [Related pubchem assays: 1829 (Project Summary), 1814 (Primary HTS)]. The test is classed as functional.
The next test deals with H4. Briefly: Luminescence Cell-Based Dose Response HTS to Identify Activators of 5'UTR Stem-Loop Driven Prion Protein mRNA Translation in H4 Neuroglioblastoma Cells. [Related pubchem assays: 1829 (Project Summary), 1814 (Primary HTS)]. The class given is functional. The settings on record: Homo sapiens.
Test [8] deals with Streptococcus sp. 'group A'. Briefly: growth inhibition of control SK(-) GAS strain, dose response, counter-screen for streptokinase expression inhibitor project, luminescence, kanamycin, BacTiterGlo, confirmation (AID 1900). The class given is functional, organism-based.
The next test relates to Streptococcus. The test can be described thus: Group A Streptococcus viability loss, dose response, counter-screen for streptokinase expression inhibitor project, luminescence, BacTiterGlo (AID 1915).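 Also: potency for reduction of bacterial viability or growth.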 The class given is functional, organism-based. Background: A counterscreen serves to expose hits that act by an unwanted route or on another target.
In the next test the test system is INS1. Briefly: beta cell apoptosis inhibitors, cytokine rescue, dose response, luminescence, retest (AID 449756).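 Also: cell death triggered by IL-1 beta plus TNF-alpha plus IFN-gamma mixture; protective hits raise ATP signal compared with cytokine alone wells.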 The settings on record: Rattus norvegicus. The test is classed as functional, cell-based.
A further test concerns the target T2, Cytochrome P450 1A2 (Homo sapiens, UniProt P05177).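 Also: PubChem cytochrome P450 panel assay, CYP1A2 panel member.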
T2 sequence (P05177 whole entry): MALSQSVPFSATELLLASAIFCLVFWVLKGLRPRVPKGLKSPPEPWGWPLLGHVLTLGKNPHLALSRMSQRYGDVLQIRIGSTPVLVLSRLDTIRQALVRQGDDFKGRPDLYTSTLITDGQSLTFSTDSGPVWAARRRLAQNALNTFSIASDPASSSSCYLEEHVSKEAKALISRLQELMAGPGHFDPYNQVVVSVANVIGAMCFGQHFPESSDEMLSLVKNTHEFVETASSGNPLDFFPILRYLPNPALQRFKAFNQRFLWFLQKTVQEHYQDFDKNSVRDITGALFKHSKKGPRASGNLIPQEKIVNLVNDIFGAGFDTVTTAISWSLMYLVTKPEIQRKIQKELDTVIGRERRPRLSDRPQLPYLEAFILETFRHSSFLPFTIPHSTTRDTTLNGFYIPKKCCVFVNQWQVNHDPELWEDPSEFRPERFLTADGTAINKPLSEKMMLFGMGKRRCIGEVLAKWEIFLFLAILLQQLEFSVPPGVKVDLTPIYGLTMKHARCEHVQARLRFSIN

The target of a further test is Cytochrome P450 2C9 (Homo sapiens, UniProt P11712).
The next test has as its target Cytochrome P450 3A4 (Homo sapiens, UniProt P08684).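 Also: CYP3A4 tested as one member of a cytochrome P450 panel screen.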
The next test deals with Cytochrome P450 2C19 (Homo sapiens, UniProt P33261). The test can be described thus: Cytochrome panel assay with activity outcomes. Panel member name: p450-cyp2c19 Compounds with AC50 equal or less than 10 uM are considered active. The class given is functional. The settings on record: read-out: AC50.
In another test the target is Cytochrome P450 2D6 (Homo sapiens, UniProt P10635).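 Also: CYP2D6 member of a cytochrome P450 panel assay.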
Test [9] is described as follows: Shn3 3'UTR reporter inhibitors, dose response, cell-based, Clone20 osteoblasts, firefly luciferase, cherry-picked (AID 624132).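 Also: firefly luciferase luminescence from reporter carrying the Shn3 3'UTR in osteoblasts.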 The class given is functional.

Broadly, the EC50 is the concentration needed to bring the measured effect to its halfway point. A word on the AC50: it is the midpoint of the concentration-response curve, whichever way the signal moves.

Structures are written as SMILES. Active and inactive are the calls of the source.

Chain of Cytochrome P450 2C9 (P11712 whole entry): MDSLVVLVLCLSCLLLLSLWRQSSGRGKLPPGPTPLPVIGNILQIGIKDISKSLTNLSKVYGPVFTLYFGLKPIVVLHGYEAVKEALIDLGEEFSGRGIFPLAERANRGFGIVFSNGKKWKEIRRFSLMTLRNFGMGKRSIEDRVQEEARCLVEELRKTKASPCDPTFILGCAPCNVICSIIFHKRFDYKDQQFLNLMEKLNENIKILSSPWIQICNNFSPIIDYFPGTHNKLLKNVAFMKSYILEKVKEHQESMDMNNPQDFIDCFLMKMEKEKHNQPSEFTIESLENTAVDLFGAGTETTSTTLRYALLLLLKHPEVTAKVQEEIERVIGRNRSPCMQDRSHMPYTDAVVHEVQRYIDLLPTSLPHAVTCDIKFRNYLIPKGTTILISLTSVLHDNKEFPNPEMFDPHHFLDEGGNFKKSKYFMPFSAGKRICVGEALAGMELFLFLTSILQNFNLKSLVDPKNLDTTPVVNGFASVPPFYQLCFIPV
Chain of Cytochrome P450 2D6 (P10635 whole entry): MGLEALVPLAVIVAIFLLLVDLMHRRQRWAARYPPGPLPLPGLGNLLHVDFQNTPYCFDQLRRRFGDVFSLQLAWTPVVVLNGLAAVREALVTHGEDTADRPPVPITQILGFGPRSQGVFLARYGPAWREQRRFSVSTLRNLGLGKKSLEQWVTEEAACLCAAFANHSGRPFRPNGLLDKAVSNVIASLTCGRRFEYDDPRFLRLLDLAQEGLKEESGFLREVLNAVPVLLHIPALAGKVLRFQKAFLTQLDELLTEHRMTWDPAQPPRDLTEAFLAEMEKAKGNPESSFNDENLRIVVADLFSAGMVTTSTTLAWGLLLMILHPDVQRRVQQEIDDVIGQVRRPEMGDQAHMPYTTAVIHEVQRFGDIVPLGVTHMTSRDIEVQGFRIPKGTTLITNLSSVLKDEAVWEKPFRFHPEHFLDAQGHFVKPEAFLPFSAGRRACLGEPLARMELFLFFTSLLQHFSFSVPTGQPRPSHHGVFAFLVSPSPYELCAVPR
T1 sequence (P11940 whole entry): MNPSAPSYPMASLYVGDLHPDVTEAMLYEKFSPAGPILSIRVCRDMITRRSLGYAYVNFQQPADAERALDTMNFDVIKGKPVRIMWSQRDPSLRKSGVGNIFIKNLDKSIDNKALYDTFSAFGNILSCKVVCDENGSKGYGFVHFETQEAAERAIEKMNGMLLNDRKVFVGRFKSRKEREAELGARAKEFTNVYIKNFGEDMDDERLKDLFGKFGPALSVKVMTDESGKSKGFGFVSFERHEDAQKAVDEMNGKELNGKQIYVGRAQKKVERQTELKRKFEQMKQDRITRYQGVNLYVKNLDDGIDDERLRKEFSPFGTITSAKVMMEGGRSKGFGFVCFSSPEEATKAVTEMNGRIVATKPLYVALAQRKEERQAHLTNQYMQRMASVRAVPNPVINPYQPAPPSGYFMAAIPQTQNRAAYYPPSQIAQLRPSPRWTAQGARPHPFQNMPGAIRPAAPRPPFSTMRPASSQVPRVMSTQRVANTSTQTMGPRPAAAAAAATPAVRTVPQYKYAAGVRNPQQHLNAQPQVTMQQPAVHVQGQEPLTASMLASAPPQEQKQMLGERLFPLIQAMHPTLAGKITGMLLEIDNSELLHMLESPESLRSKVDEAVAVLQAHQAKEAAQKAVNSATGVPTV
Chain of Cytochrome P450 3A4 (P08684 whole entry): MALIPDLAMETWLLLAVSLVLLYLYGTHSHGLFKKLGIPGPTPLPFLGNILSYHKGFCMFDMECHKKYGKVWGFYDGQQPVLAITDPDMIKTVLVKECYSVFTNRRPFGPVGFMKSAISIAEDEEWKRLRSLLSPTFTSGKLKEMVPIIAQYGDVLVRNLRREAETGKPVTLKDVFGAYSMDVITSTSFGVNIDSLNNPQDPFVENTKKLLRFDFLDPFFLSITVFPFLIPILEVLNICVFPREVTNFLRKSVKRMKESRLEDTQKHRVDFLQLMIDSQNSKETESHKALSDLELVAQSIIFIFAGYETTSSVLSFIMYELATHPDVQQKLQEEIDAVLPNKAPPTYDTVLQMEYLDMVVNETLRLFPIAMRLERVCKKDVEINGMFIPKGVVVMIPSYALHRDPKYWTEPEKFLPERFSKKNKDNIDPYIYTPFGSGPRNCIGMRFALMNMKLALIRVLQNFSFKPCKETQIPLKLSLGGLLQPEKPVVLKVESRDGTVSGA
Chain of Cytochrome P450 2C19 (P33261 whole entry): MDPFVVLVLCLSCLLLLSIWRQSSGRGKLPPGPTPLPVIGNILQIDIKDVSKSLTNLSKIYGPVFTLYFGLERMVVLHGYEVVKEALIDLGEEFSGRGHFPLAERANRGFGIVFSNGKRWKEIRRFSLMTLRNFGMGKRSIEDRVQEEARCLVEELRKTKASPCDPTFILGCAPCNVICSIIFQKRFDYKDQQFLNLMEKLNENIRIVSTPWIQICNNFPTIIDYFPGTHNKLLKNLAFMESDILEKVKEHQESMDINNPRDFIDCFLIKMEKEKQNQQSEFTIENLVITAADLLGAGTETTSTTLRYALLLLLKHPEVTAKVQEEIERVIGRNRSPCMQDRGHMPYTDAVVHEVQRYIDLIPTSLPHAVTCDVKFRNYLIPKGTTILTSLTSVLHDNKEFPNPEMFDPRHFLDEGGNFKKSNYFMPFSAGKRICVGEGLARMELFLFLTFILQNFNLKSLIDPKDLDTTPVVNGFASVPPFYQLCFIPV

With `COCCCNC(=O)c1ccc(Cn2c(=O)c3ccccc3n(Cc3ccccc3C#N)c2=O)cc1`, the concentration giving a half-maximal response (EC50) is > 120 µM (not active) in test [1], > 120 µM (not active) in [2] and 20.7 µM (active) in test [3].
With `COc1ccc(N/N=C2/CCCCC2=O)cc1`, the IC50 in test [4] and in [5] was > 66 µM (inactive) in each case.
As for `Cn1c(CN2CCOCC2)nc2cc(NC(=O)c3ccc(Cl)cc3)ccc21`, the EC50 in [6] is 26.7 µM (active); in test [7], 14.3 µM (active); in the test on H4, > 120 µM (not active).
`Cc1ccc(O)c(NC(=S)NC(=O)c2ccc(-c3ccc(Cl)cc3)o2)c1`: the EC50 in [8] is 1.16 µM (active); with Streptococcus, 5.74 µM (active). Besides, the AC50 in the test with INS1 is 16.7 µM (active).
Regarding `O=C(CSC1=NC2(CCCCC2)N=C1c1ccccc1)Nc1ccc2c(c1)OCCO2`, the IC50 in test [4] and in [5] was > 66 µM (inactive) in each case.
Consider `Cc1ccc2c(c1)C(c1ccncc1)=NNC(c1ccccc1)=N2`, for which the EC50 was 0.364 µM (active) in [6], > 120 µM (not active) in test [7] and 21.2 µM (active) with H4.
In the same order, the values of `Cc1n[nH]c(SCC(=O)N2CCCCC2)c1[N+](=O)[O-]` are 14.7 µM (active), 8.02 µM (active) and 17.3 µM (active).
`O=C1c2c(O)cc(O)cc2O[C@@H](c2ccc(O)c(O)c2)[C@H]1O` [(+)-EPITAXIFOLIN]: the AC50 at Cytochrome P450 1A2 was 15.8 µM (inconclusive).
Take `COc1ccccc1/C=N/N=C(/Nc1ccc(C)cc1)c1nc2ccccc2s1`: the half-maximal activity concentration (AC50) was 17.8 µM (inconclusive) at Cytochrome P450 2C9, 17.8 µM (inconclusive) on Cytochrome P450 3A4 and 14.1 µM (inconclusive) at Cytochrome P450 1A2.
On to `Cc1ccc(C(=O)Nc2cccc(C(F)(F)F)c2)cc1NC(=O)c1cnnc2ccccc12`, for which the values for the EC50 in test [1], in test [2] and in test [3] were 18.9 µM (active), > 120 µM (not active) and 13.2 µM (active), respectively.
Turning to `O=c1oc2ccccc2cc1NCc1ccccc1O`, the 50% effective concentration (EC50) in test [6] was 0.325 µM (active); in [7], 5.63 µM (active); in the test on H4 it was 46.2 µM (active).
For `CCOC(=O)c1cc(-c2ccccc2)nc2nc(N3CCCCC3)sc12`, the EC50 in test [1] was 24.3 µM (active); in [2] it was 103 µM (active); in test [3], 14.8 µM (active).
As for `Cc1ccc(CSc2nnc(SCC(=O)N/N=C/c3c(C)nn(-c4ccccc4)c3C)s2)cc1`, the EC50 in [6] is 0.169 µM (active); in [7], > 120 µM (not active); with H4 it was 43.9 µM (active).
In the same order, the values of `COc1cccc(NC(=O)C(=O)NCC2CCCN2S(=O)(=O)c2ccccc2)c1` (stereo unspecified) are 4.26 µM (active), 2.67 µM (active) and 58.8 µM (active).
As for `Cc1nc2ccccn2c1C(=O)C1=C(O)C(=O)N(CCN(C)C)C1c1ccco1` (stereo unspecified), the IC50 in test [4] and in test [5] was > 66 µM (inactive) in each case.
As to `O=C1/C(=C/c2cccnc2)Oc2cc(OS(=O)(=O)c3ccccc3)ccc21`, the half-maximal effective concentration (EC50) in test [6] was 18.3 µM (active); in test [7], 8.55 µM (active); in the test with H4, > 120 µM (not active).
`CCOC(=O)c1c(NC(=O)C2(C)Cc3ccccc3C(=O)O2)sc2c1CCCC2` (stereo unspecified): the IC50 in test [4] and in test [5] was > 66 µM (inactive) in each case.
`Cc1noc(C)c1-c1cncnc1NCCN1CCOCC1`: the AC50 on Cytochrome P450 1A2 is 31.6 µM (inconclusive); on Cytochrome P450 2C19 it was 0.0398 µM (inconclusive).
In the case of `O=C(/N=C1\SCC(=O)N1c1ccccc1Cl)c1ccco1`, the concentration for a half-maximal effect (EC50) was 4.12 µM (active) in test [6] and 8.06 µM (active) in test [7].
As to `CC(C)(C)C1CCc2onc(C(=O)Nc3cnn(Cc4ccc(F)cc4)c3)c2C1` (stereo unspecified), the EC50 in test [1] is 23.3 µM (active); in test [2], > 120 µM (not active); in test [3] it was 28.2 µM (active).
As to `O=c1c(-c2ccccc2)nc2cnc(N3CCOCC3)nc2n1CCc1ccccc1`, the AC50 at Cytochrome P450 3A4 was 31.6 µM (inconclusive); on Cytochrome P450 1A2, 12.6 µM (inconclusive).
With `Cc1cc(Cn2cnc3c2C[C@@H](C(=O)O)N(C(=O)C(c2ccccc2)c2ccccc2)C3)ccc1N(C)C`, the concentration at half-maximal activity (AC50) on Cytochrome P450 2D6 was 39.8 µM (inconclusive); on Cytochrome P450 1A2, 25.1 µM (inconclusive).
In the case of `Cc1ccc(C2=[N+]([O-])C3(CCCCC3=O)N(O)C2(C)C)cc1` (stereo unspecified), the EC50 in [1] is > 120 µM (not active); in test [2] it was 42.6 µM (active); in [3], > 120 µM (not active).
`COc1ccc2oc(=O)c(C(=O)N3CCN(c4ccccc4C)CC3)cc2c1`: the figures for the half-maximal effective concentration (EC50) (in test [6]; in test [7]; in the test on H4) were 57 µM (active), 17 µM (active) and 19 µM (active), respectively.
Turning to `CCN(CC)C(=O)[C@H]1C[C@H](CC(=O)NC/C=C(\C)CCC=C(C)C)C(=O)N2CCc3c([nH]c4cc(CCC(=O)N(C)C)ccc34)[C@]12C`, the concentration at half-maximal activity (AC50) in test [9] was 1.37 µM (active).
As for `O=C(NCCNc1ccc([N+](=O)[O-])cc1Cl)c1ccccc1F`, the EC50 in test [1] was 26.4 µM (active); in test [2], 76.3 µM (active); in test [3], > 120 µM (not active).
With `CC1CC(C)CN(C(=O)CNS(=O)(=O)c2ccc(Br)s2)C1` (stereo unspecified), the results for the AC50 on Cytochrome P450 2C9, at Cytochrome P450 3A4 and on Cytochrome P450 1A2 were 10 µM (inconclusive), 11.2 µM (inconclusive) and 15.8 µM (inconclusive), respectively.
`Cc1nn(C(C)(C)C)c(OC(=O)c2ccco2)c1Sc1ccccc1`: the AC50 at Cytochrome P450 3A4 is 39.8 µM (inconclusive); on Cytochrome P450 1A2, 14.1 µM (inconclusive).
Taken in the same sequence, the figures for `O=C(c1cnccn1)N1CCC[C@@]2(CCN(C(c3ccccc3)c3ccccc3)C2)C1` were 2.51 µM (inconclusive) and 15.8 µM (inconclusive).
As to `CCN1C(=O)/C(=C\NC2CCCC(C)C2C)SC1=S` (stereo unspecified), the EC50 in test [6] is 0.564 µM (active); in test [7], 15.8 µM (active); in the test with H4, > 120 µM (not active).
Consider `Cc1ccc(NC(=O)C2C3CCCC2C3c2ccccc2)c(C)c1` (stereo unspecified), for which the EC50 in test [1], in test [2] and in test [3] was > 120 µM (not active) each time.
On to `Cc1cc([C@](C)(N)C(=O)O)ccc1P(=O)(O)O`, for which the values for the AC50 at Cytochrome P450 2D6 and at Cytochrome P450 1A2 were 12.6 µM (inconclusive) and 31.6 µM (inconclusive), respectively.
Turning to `CCOC(=O)c1cnn(-c2ccc(C(C)C)cc2)c1NC(=O)C1CCC1`, the half-maximal activity concentration (AC50) is 8.91 µM (inconclusive) at Cytochrome P450 2D6, 39.8 µM (inconclusive) at Cytochrome P450 2C9, 39.8 µM (inconclusive) at Cytochrome P450 3A4 and 14.1 µM (inconclusive) at Cytochrome P450 1A2. In addition, the EC50 in test [6] was 13.4 µM (active); in test [7] it was 18.9 µM (active); in the test with H4, > 120 µM (not active).
As to `Cc1onc(-c2c(F)cccc2Cl)c1C(=O)NC(=S)Nc1c(C)n(C)n(-c2ccccc2)c1=O`, the IC50 in [4] and in test [5] was > 66 µM (inactive) throughout.
As to `O=C(O)CNC(=O)c1ccccc1O` [SALICYLURIC ACID], at Cytochrome P450 1A2, the AC50 was 5.01 µM (inconclusive).
